Data published in PubChem BioAssay AID686993 (Broad Institute, 2013).
“And” between values parts separate entries of the source, which are not always exact repeats. Identical values can stand only once. Records with an inconclusive call do not appear. The source made the active and inactive calls.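 Rule for the calls: active = compound whose fitted half-maximal inhibitory dose is at most twice its top valid dose in every replicate test; inconclusive = replicate test calls disagree with one another; inactive = all replicate tests inactive, including opposite-direction effects.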

Biological target: UDP-N-acetylbacillosamine N-acetyltransferase PglD (Campylobacter jejuni)
Assay: inhibition of C. jejuni PglD N-acetyltransferase – biochemical, DTNB absorbance, dry powder samples, set 4, dose response (AID 686993)
Settings: purified PglD, DTNB absorbance 412 nm, CoA release

Compound | AC50
Cc1c(C(=O)O)sc2nc(/C=C/c3ccc4[nH]ccc4c3)[nH]c(=O)c12 | 3.97 µM
Cc1c(C(=O)O)sc2nc(/C=C/c3cccc(F)c3)[nH]c(=O)c12 | 7.23 µM
Cc1c(C(=O)O)sc2nc(/C=C/c3cccc(C(F)(F)F)c3)[nH]c(=O)c12 | 29.1 µM
Cc1c(C(=O)O)sc2nc(/C=C/c3ccc(N)nc3)[nH]c(=O)c12 | 14.6 µM
Cc1c(C(=O)O)sc2nc(CCc3cccc(O)c3)[nH]c(=O)c12 | 8.28 µM
Cc1c(C(=O)O)sc2nc(/C=C/C=C/c3ccccc3)[nH]c(=O)c12 | 18.2 µM
Cc1c(C(=O)O)sc2nc(/C=C/c3ccccn3)[nH]c(=O)c12 | 2.58 µM
Cc1c(C(=O)O)sc2nc(/C=C/c3cc4ccccc4cn3)[nH]c(=O)c12 | 4.54 µM
Cc1c(C(=O)O)sc2nc(/C=C/c3ccc4ccccc4c3)[nH]c(=O)c12 | 30.5 µM
Cc1c(C(=O)O)sc2nc(/C=C/c3cccc(C(N)=O)c3)[nH]c(=O)c12 | 17.6 µM
Cc1c(C(=O)O)sc2nc(/C=C/c3ccc4cc[nH]c4c3)[nH]c(=O)c12 | 7.87 µM
Cc1c(C(=O)O)sc2nc(/C=C/c3cccc(O)c3)[nH]c(=O)c12 | 11.7 µM and 1.93 µM
Cc1c(C(=O)O)sc2nc(/C=C/c3ccccc3)[nH]c(=O)c12 | 8.04 µM

Same assay, conditions: purified PglD, DTNB absorbance 412 nm, CoA release; at 10 µM (top of the series)

Compound | activity change, negative = inhibition
Cc1c(C(=O)O)sc2nc(/C=C/c3cnc4ccccc4c3)[nH]c(=O)c12 | inactive
Cc1c(C(=O)O)sc2nc(/C=C/c3ccncc3)[nH]c(=O)c12 | inactive

Same assay, conditions: purified PglD, DTNB absorbance 412 nm, CoA release; at 38 µM (top of the series)

Compound | activity change, negative = inhibition
Cc1c(C(=O)O)sc2nc(/C=C/c3ccnc4ccccc34)[nH]c(=O)c12 | inactive
Cc1c(C(=O)O)sc2nc(/C=C/c3cccc(O)c3)[nH]c(=O)c12 | inactive
Cc1c(C(=O)O)sc2nc(/C=C/C3CC3)[nH]c(=O)c12 | inactive
